For test [1], the target named is T1, [3H]serotonin re-uptake in synaptosome (Rattus norvegicus, UniProt P31652).
T1 construct: to give a synaptosome solution; from tissue; host or cells: rat cerebral cortex synaptosomes (male SD rats)
Kind of test: Inhibition of serotonin reuptake in rat cerebral cortex synaptosome. The format is biochemical. The following applies: Ki calculated from IC50 and Kd, read-out: Serotonin Reuptake Inhibiting Activity, Ki value. As for the experimental part:
(§1) Experiments for Inhibition of Serotonin Reuptake and Experiments for Inhibition of Norepinephrine Reuptake
(§2) Cerebral cortex of male SD rats (JAPAN SLC Inc.), over six weeks of age was excised and a 0.32M sucrose solution was added thereto in an amount of 10 mL per gram of the cerebral cortex followed by homogenizing. The homogenized solution was centrifuged, the supernatant thereof was further centrifuged at high speed and, to the resulting pellets, a PSS solution (pH 7.4; comprising 150 mM of NaCl, 4 mM of KCl, 1 mM of MgCl2, 2.5 mM of HEPES, 0.9 mg/mL of glucose, 0.176 mg/mL of ascorbic acid and 1 mM of pargylin) was added in an amount of 10 mL per gram of the pellets to give a synaptosome solution. A compound to be tested (100 μL) was added to 100 μL of the synaptosome solution and 700 μL of a 50 mM Tris buffer (pH 7.4; trihydroxylaminomethane) followed by subjecting to pre-incubation at 37° C. for 5 minutes. After the pre-incubation, 100 μL of [^3H]serotonin or [^3H]norepinephrine diluted to 10 nM and 20 nM, respectively, with a Tris buffer was added thereto followed by incubating at 37° C. for 5 minutes.
(§3) Synaptosome was recovered on a GF/B filter using a cell harvester and further washed three times using a washing solution (50 mM Tris buffer; pH 7.4; 4° C.). The filter was transferred to a vial, a scintillator was added thereto and the radiation activity was measured using a liquid scintillation counter.
(§4) Incidentally, the non-specific reaction was defined as the radiation activity under ice-cooling (4° C.) and the difference between the total radiation activity and the radiation activity under the non-specific reaction was adopted as the radiation activity specifically re-uptaken in the synaptosome. IC50 value was determined from the re-uptake inhibition rate in the presence of a test compound and, from IC50 value and the Kd value of [^3H]serotonin or [^3H]norepinephrine, Ki value of the test compound showing a re-uptake inhibiting activity of serotonin or norepinephrine, respectively, was calculated.

Test [2] addresses T2, [3H]norepinephrine re-uptake in synaptosome (Rattus norvegicus, UniProt Q9WTR4).
T2 construct: to give a synaptosome solution; from tissue; host or cells: rat cerebral cortex synaptosomes (male SD rats)
Kind of test: Inhibition of norepinephrine reuptake in rat cerebral cortex synaptosome. The format is biochemical. As to conditions: Ki calculated from IC50 and Kd, read-out: Norepinephrine Reuptake Inhibiting Activity, Ki value. As for the experimental part:
as §1, §2, §3, §4

A further test has as its system rats under anesthesia. Kind of test: Measurement of urine leak point pressure in rats under anesthesia. The following applies: intravenous administration of not more than 10 mg/kg; female rats, urethane anesthesia, thoracic spine cut at T8 to T9. The format is in vivo, rat. As for the experimental part:
Measurement of Urine Leak Point Pressure in Rats Under Anesthesia Under anesthesia with urethane (1.2 g/kg; subcutaneous administration), the thoracic spine of female rats of 8 to 12 weeks of age (Japan SLC Inc.) was cut at the level of T8 to T9 so that the micturition reflex was made to disappear, then the abdomen was subjected to a median incision to expose the bladder and then a cannula was inserted into the bladder. An appropriate amount (ca. 0.4 mL) of a physiological saline was previously infused into the bladder, both sides of the bladder were gradually pressed with two cotton buds and the inner pressure of the bladder when the physiological saline solution leaked out from the urethral orifice was measured as a pressure upon leakage of urine. The measurement was repeated several times until the measured values became stable and, after that, the test compound was intravenously administered and a pharmacological effect of the test compound was evaluated.

Here are results for two molecules from patent US8217031B2, “Heteroaryl derivatives” (Nippon Shinyaku Co., Ltd., priority 2007, dated 2012).

T1 sequence (P31652 whole entry): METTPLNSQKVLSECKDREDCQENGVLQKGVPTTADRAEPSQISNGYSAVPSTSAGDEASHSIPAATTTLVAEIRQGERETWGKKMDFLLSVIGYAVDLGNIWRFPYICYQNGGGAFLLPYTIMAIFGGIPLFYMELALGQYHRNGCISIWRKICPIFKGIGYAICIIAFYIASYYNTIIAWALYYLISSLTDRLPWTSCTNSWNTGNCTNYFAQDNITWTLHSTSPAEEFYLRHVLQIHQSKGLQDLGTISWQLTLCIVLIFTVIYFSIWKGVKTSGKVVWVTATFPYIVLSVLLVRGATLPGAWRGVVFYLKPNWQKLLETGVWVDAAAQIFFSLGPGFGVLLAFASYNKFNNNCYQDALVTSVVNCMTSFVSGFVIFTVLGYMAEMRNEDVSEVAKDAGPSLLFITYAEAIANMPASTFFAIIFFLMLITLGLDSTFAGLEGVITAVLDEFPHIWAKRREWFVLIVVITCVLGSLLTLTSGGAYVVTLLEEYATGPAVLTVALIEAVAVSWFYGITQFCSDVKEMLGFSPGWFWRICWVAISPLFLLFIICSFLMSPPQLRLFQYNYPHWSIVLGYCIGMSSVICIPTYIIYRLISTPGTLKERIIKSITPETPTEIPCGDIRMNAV
T2 sequence (Q9WTR4 1-597): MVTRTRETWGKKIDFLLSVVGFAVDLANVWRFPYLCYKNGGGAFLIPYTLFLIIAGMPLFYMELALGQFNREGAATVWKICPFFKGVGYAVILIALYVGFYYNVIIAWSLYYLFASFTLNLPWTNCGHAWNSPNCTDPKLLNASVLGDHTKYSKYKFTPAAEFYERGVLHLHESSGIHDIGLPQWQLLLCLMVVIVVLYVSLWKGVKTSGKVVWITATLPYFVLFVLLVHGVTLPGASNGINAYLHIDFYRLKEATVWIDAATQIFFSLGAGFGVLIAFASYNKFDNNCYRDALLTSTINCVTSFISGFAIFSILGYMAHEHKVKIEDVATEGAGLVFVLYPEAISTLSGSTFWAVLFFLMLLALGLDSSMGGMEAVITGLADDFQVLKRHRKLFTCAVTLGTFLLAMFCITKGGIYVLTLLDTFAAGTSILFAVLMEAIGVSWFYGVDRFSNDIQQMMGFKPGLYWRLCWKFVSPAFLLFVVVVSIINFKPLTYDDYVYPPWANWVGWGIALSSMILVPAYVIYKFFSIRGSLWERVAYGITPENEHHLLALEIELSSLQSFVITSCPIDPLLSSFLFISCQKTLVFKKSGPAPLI

`CN1CCC(Oc2cccc(Br)c2Cl)c2ccoc2C1.Cl` (single isomer, unassigned; (+)) [Example 398, (+)-4-(3-Bromo-2-chlorophenyloxy)-7-methyl-5,6,7,8-tetrahydro-4H-furo[2,3-c]azepine hydrochloride]: the Ki in test [1] was 1.7 nM; in test [2], 5.6 nM. Further, in the test with rats under anesthesia, the “leak point pressure (pressure upon leakage of urine)” value was “raised the leak point pressure”.

Take `Cc1cc2c(o1)CN(C)CCC2Oc1cccc2ccccc12.Cl` (single isomer, unassigned; (+)) [Example 401, (+)-2,7-Dimethyl-4-(naphthalen-1-yloxy)-5,6,7,8-tetrahydro-4H-furo[2,3-c]azepine hydrochloride]: the figures for the Ki in test [1] and in test [2] were 1 nM and 3.2 nM, respectively. Besides, the “leak point pressure (pressure upon leakage of urine)” value in the test with rats under anesthesia is “raised the leak point pressure”.

A word on the Ki: it is a dissociation constant, usually derived from enzyme kinetics or from competition with a known ligand.
